Measurements published in publication PMC12624434 (ACS Pharmacology & Translational Science, 2025).
Several values for one entry are separate records, joined by “and”; a condition that tells them apart may be missing. Identical values can stand only once. Entries after “also recorded” stand apart in the source; their conditions may differ. Like-named read-outs stand apart in the source and are kept apart here. Blank lines part the entries; values can stand above or below the compound they belong to.

Tests used:
NRP1 b1 domain = target: T1, NRP1 b1 domain (Homo sapiens, UniProt O14786); experiment: SPR binding to immobilized NRP1 b1 domain (Biacore 4000, CM5 chip); settings: steady-state binding, 25 °C, mean ± SD; for Kd: read-out: SPR NRP1 b1 domain equilibrium KD
T1 construct: with the purified recombinant NRP1 b1 domain immobilized on the chip; inferred from Ni-NTA capture), TEV-cleavable (cleaved yes); made in house; host or cells: E. coli Rosetta (DE3)
T1 sequence (O14786 275-424 limits assumed): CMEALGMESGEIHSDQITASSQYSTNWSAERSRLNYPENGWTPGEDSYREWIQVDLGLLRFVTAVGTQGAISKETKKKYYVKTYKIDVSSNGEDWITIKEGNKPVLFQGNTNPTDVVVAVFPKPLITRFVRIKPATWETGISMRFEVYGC
Description: Surface Plasmon Resonance experiments were performed using a Biacore 4000 instrument at a constant temperature of 25 °C. Sensor chips, buffer stock solutions, and immobilization reagents were purchased from GE Healthcare. Recombinant human NRP1-b1 was produced in-house and recombinant human NRP1-ECD (extracellular domain) was purchased from ACRO (catalogue number NR1-H5A228). All other reagents were obtained from Sigma.
PBS containing 0.05% surfactant P20 was used as the running buffer during immobilization. NRP1-b1 was immobilized onto a CM5 chip using random amine coupling. The four flow cells were treated in the same way to optimize throughput. In summary, spots 1 and 2 were activated with the coupling reagents EDC and NHS for 10 min. NRP1-b1 at a concentration of 20 μg/mL in 10 mM sodium acetate pH 5 was injected onto the surface for 10 and 5 min in spots 1 and 2, respectively to generate surfaces with high and low density. […] The unmodified spot 3 was used as a reference.
PBS buffer containing 0.05% surfactant P20 and 3% DMSO was used as the running buffer and sample dilution buffer throughout these experiments. Dose–responses were obtained using a 2-fold sample dilution from 16 μM to 31 nM, using an injection time of 60 s. Surface regeneration between injections was not necessary, but a wash step with 1 M NaCl was included after injection of the highest concentration sample for each compound.
Binding curves were corrected for variations in DMSO concentration and normalized by molecular weight. Binding results to high and low-density surfaces were processed independently and the average ± SD is presented. K Ds reported are derived from steady-state binding responses and therefore correspond to the equilibrium binding affinity of the compounds.

[1] = Pharmacokinetics in mice, 2 mg/kg iv; format: in vivo; settings: female, BALB/c, mouse, plasma; for clearance: iv, 2 mg/kg; for AUC: read-out: AUCall
Description: To test compound drug-like properties, selected compounds with low IC50 were further evaluated for their pharmacokinetic (PK) profile. 6–8 week-old BABL/c female mice were used. Two mg/kg of compounds was formulated in 7.5% DMSO and 92.5% PBS solution and intravenously dosed into the tail vein as a bolus. Blood samples were collected by cardiac puncture at 5, 15, 30, 60, 180, and 240 min post dosing. Plasma samples were prepared by centrifugation at 7000 rpm for 5 min, and supernatants were collected, immediately snap-frozen on dry ice and stored at −20 °C. Samples were analyzed by liquid chromatography-tandem mass spectrometry using electrospray ionization and data was analyzed by WinNonlin software.

NRP1-a1,b1 = target: T2, NRP1-a1,b1 (Homo sapiens, UniProt O14786); experiment: bt-VEGFA cell-free competition binding assay (plate-based)
T2 sequence (O14786 273-427 limits assumed): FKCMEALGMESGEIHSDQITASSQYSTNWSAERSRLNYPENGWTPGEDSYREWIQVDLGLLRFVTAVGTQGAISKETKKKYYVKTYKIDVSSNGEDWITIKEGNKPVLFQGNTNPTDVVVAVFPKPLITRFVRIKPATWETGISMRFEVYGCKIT
Description: The assay was conducted as previously described. Briefly, the 96-well plates were precoated with NRP1 protein at 3 μg/mL overnight at 4 °C. On the following day, the plates were treated with blocking buffer (PBS containing 1%1% BSA) and washed three times with wash buffer (PBS containing 0.1% Tween-20). The various concentrations of compounds diluted in PBS containing 1%1% DMSO were added, followed by addition of 0.25 nM of bt-VEGFA165. After 2 h of incubation at room temperature, the plates were washed three times with wash buffer. The bound bt-VEGFA165 to NRP1 was detected by streptavidin– horseradish peroxidase conjugates and the enzyme substrate, and measured using a Tecan Genius plate reader at 450 nm with a reference wavelength at 595 nm. Nonspecific binding was determined in the absence of NRP1-coated wells of the plates.

[2] = Solubility (observation during SPR); format: physicochemical; settings: noted with SPR data fitting
[3] = pK BHX scale; no reference given; cited from earlier work
[4] = plate-based assay, Figure 2D, read-out: IC50, competitive inhibition of bt-VEGFA binding to NRP1
[5] = 0.25 nM bt-VEGFA165, mean ± SEM, at least three independent experiments, read-out: Competition analysis bt-VEGFA, cell-free NRP1-a1,b1 IC50

Kd (NRP1 b1 domain): 1440 ± 130 nM
Structure (SMILES): Cn1cncc1CNCc1cccc(-c2cc(S(=O)(=O)Nc3ccsc3C(=O)N[C@@H](CCCNC(=N)N)C(=O)O)c3ncccc3c2)c1 [Compound 12a, (2S)-5-Guanidino-2-[[3-[[6-[3-[[(3-methylimidazol-4-yl)-methylamino]-methyl]-phenyl]-8-quinolyl]-sulfonylamino]-thiophene-2-carbonyl]-amino]-pentanoic Acid, Formic Acid]

Kd (NRP1 b1 domain): 2270 ± 70 nM
Structure (SMILES): CNCc1ccc(-c2cc(S(=O)(=O)Nc3ccsc3C(=O)N[C@@H](CCCNC(=N)N)C(=O)O)c3ncccc3c2)cc1 [Compound 12b, (2S)-5-Guanidino-2-[[3-[[6-[4-(methylaminomethyl)-phenyl]-8-quinolyl]-sulfonylamino]-thiophene-2-carbonyl]-amino]-pentanoic Acid, Formic Acid]

Kd (NRP1 b1 domain): 800 ± 140 nM
Structure (SMILES): Cn1cncc1CNCc1ccc(-c2cc(S(=O)(=O)Nc3ccsc3C(=O)N[C@@H](CCCNC(=N)N)C(=O)O)c3ncccc3c2)cc1 [Compound 12c, (2S)-5-Guanidino-2-[[3-[[6-[4-[[(3-methylimidazol-4-yl)-methylamino]-methyl]-phenyl]-8-quinolyl]-sulfonylamino]-thiophene-2-carbonyl]-amino]-pentanoic Acid, Formic Acid]

Kd (NRP1 b1 domain): 650 ± 50 nM
Structure (SMILES): N=C(N)NCCC[C@H](NC(=O)c1sccc1NS(=O)(=O)c1cc(-c2cccc(CN)c2)cc2cccnc12)C(=O)O [Compound 12d, (2S)-2-[[3-[[6-[3-(Aminomethyl)-phenyl]-8-quinolyl]-sulfonylamino]-thiophene-2-carbonyl]-amino]-5-guanidino-pentanoic Acid, Formic Acid]

Kd (NRP1 b1 domain): 920 ± 150 nM
Structure (SMILES): N=C(N)NCCC[C@H](NC(=O)c1sccc1NS(=O)(=O)c1cc(-c2ccc(CN)cc2)cc2cccnc12)C(=O)O [Compound 12e, (2S)-2-[[3-[[6-[4-(Aminomethyl)-phenyl]-8-quinolyl]-sulfonylamino]-thiophene-2-carbonyl]-amino]-5-guanidino-pentanoic Acid, Formic Acid]

Kd (NRP1 b1 domain): 1490 ± 200 nM
Structure (SMILES): N=C(N)NCCC[C@H](NC(=O)c1sccc1NS(=O)(=O)c1cc(-c2ccnc(N)c2)cc2cccnc12)C(=O)O [Compound 12f, (2S)-2-[[3-[[6-(2-Amino-4-pyridyl)-8-quinolyl]-sulfonylamino]-thiophene-2-carbonyl]-amino]-5-guanidino-pentanoic Acid, Formic Acid]

AUC(0-inf) [1]: 491 ng·h/mL
AUC(0-t) [1]: 490 ng·h/mL
Cmax [1]: 2050 ng/mL
Tmax [1]: 4.8 min
Vd [1]: 0.569 L/kg
half-life [1]: 23.4 min
clearance [1]: 67.9 mL/min/kg
AUC [1]: 490 ng·h/mL
IC50 (NRP1-a1,b1; [4]): < 500 nM
solubility [2]: poor solubility
Structure (SMILES): CN(C)c1nc(CNc2cc(S(=O)(=O)Nc3ccsc3C(=O)N[C@@H](CCCNC(=N)N)C(=O)O)c3ncccc3c2)cs1.O=CO [Compound 12g, (2S)-2-[[3-[[6-[[2-(Dimethylamino)-thiazol-4-yl]-methylamino]-8-quinolyl]-sulfonylamino]-thiophene-2-carbonyl]-amino]-5-guanidino-pentanoic Acid, Formic Acid]
SPR NRP1 b1 domain equilibrium KD (NRP1 b1 domain): did not converge; also recorded: Curve fit does not converge

Kd (NRP1 b1 domain): 1040 ± 120 nM
Structure (SMILES): N=C(N)NCCC[C@H](NC(=O)c1sccc1NS(=O)(=O)c1cc(NCc2csc(N)n2)cc2cccnc12)C(=O)O [Compound 12i, (2S)-2-[[3-[[6-[(2-Aminothiazol-4-yl)-methylamino]-8-quinolyl]-sulfonylamino]-thiophene-2-carbonyl]-amino]-5-guanidino-pentanoic Acid, Formic Acid]

AUC(0-inf) [1]: 643 ng·h/mL
AUC(0-t) [1]: 640 ng·h/mL
Cmax [1]: 2500 ng/mL
Tmax [1]: 4.8 min
Vd [1]: 0.628 L/kg
half-life [1]: 36 min
clearance [1]: 51.9 mL/min/kg
AUC [1]: 640 ng·h/mL
IC50 (NRP1-a1,b1; [5]): 450 ± 10 nM
IC50 (NRP1-a1,b1; [4]): < 500 nM
Competition analysis bt-VEGFA, cell-free NRP1-a1,b1 Hill coefficient (NRP1-a1,b1; value in parentheses): 1.0
Kd (NRP1 b1 domain): 530 ± 140 nM
Structure (SMILES): CNc1nc(CNc2cc(S(=O)(=O)Nc3ccsc3C(=O)N[C@@H](CCCNC(=N)N)C(=O)O)c3ncccc3c2)cs1 [Compound 12j, (2S)-5-Guanidino-2-[[3-[[6-[[2-(methylamino)-thiazol-4-yl]-methylamino]-8-quinolyl]-sulfonylamino]-thiophene-2-carbonyl]-amino]-pentanoic Acid]

Kd (NRP1 b1 domain): 1140 ± 120 nM
Structure (SMILES): N=C(N)NCCC[C@H](NC(=O)c1sccc1NS(=O)(=O)c1cc(NCc2cccc(N3CCOCC3)n2)cc2cccnc12)C(=O)O [Compound 12k, (2S)-5-Guanidino-2-[[3-[[6-[(6-morpholino-2-pyridyl)-methylamino]-8-quinolyl]-sulfonylamino]-thiophene-2-carbonyl]-amino]-pentanoic Acid]

Kd (NRP1 b1 domain): 1230 ± 360 nM
Structure (SMILES): N=C(N)NCCC[C@H](NC(=O)c1sccc1NS(=O)(=O)c1cc(NCc2ccc(N)nc2)cc2cccnc12)C(=O)O [Compound 12l, (2S)-2-[[3-[[6-[(6-Amino-3-pyridyl)-methylamino]-8-quinolyl]-sulfonylamino]-thiophene-2-carbonyl]-amino]-5-guanidino-pentanoic Acid, Formic Acid]

Kd (NRP1 b1 domain): 7710 ± 310 nM
Structure (SMILES): CN(C)c1ncc(CNc2cc(S(=O)(=O)Nc3ccsc3C(=O)N[C@@H](CCCNC(=N)N)C(=O)O)c3ncccc3c2)cn1 [Compound 12m, (2S)-2-[[3-[[6-[[2-(Dimethylamino)-pyrimidin-5-yl]-methylamino]-8-quinolyl]-sulfonylamino]-thiophene-2-carbonyl]-amino]-5-guanidino-pentanoic Acid]

Kd (NRP1 b1 domain): 820 ± 100 nM
Structure (SMILES): CN(C)c1ccc(CNc2cc(S(=O)(=O)Nc3ccsc3C(=O)N[C@@H](CCCNC(=N)N)C(=O)O)c3ncccc3c2)cn1 [Compound 12n, (2S)-2-[[3-[[6-[[6-(Dimethylamino)-3-pyridyl]-methylamino]-8-quinolyl]-sulfonylamino]-thiophene-2-carbonyl]-amino]-5-guanidino-pentanoic Acid]

IC50 (NRP1-a1,b1; [5]): 900 ± 160 nM
Kd (NRP1 b1 domain): 1410 ± 160 nM
Structure (SMILES): N=C(N)NCCC[C@H](NC(=O)c1sccc1NS(=O)(=O)c1cccc2cccnc12)C(=O)O [Compound 12o, (S)-5-Guanidino-2-{[3-(quinoline-8-sulfonylamino)-thiophene-2-carbonyl]-amino}-pentanoic Acid]

Kd (NRP1 b1 domain): 510 nM and 2540 nM
Structure (SMILES): N=C(N)NCCC[C@H](NC(=O)c1sccc1NS(=O)(=O)c1cc(-c2csc(N)n2)cc2cccnc12)C(=O)O [Compound 12q, (S)-2-({3-[6-(2-Amino-thiazol-4-yl)-quinoline-8-sulfonylamino]-thiophene-2-carbonyl}-amino)-5-guanidino-pentanoic Acid]

Structure (SMILES): CCOCC [diethyl ether]
pK BHX (hydrogen bond acceptor strength) [3]: 1.01

Structure (SMILES): c1c[nH]cn1 [imidazole]
pK BHX (hydrogen bond acceptor strength) [3]: 2.72

Structure (SMILES): c1ccc2ncccc2c1 [quinoline]
pK BHX (hydrogen bond acceptor strength) [3]: 1.89

Structure (SMILES): C1CCOC1 [tetrahydrofuran]
pK BHX (hydrogen bond acceptor strength) [3]: 1.28
